According to patent US5527703A (Merck & Co., Inc., priority 1994, dated 1996):

Target: T1, GluCl α&β (Caenorhabditis elegans, UniProt G5EBR3+Q17328)
T1 construct: the full-length open reading frame of the GluCl cDNA encoding the GluClα (52,550 kDa) and GluClβ (49,900kDa) subunits; expressed in transfected cells; host or cells: Xenopus laevis oocytes injected with in vitro RNA
T1 sequence (G5EBR3 21-461): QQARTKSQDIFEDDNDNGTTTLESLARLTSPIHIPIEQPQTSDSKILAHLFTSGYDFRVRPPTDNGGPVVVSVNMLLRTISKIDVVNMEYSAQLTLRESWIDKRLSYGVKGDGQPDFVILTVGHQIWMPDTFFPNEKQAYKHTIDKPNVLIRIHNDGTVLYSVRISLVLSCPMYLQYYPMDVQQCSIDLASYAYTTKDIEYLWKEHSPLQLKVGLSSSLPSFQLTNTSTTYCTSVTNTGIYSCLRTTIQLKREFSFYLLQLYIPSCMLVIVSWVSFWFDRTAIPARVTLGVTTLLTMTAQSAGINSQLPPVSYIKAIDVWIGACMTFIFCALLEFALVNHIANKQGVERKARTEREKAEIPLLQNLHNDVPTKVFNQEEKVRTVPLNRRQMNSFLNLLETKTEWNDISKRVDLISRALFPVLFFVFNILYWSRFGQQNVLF
T1 sequence (Q17328 23-434): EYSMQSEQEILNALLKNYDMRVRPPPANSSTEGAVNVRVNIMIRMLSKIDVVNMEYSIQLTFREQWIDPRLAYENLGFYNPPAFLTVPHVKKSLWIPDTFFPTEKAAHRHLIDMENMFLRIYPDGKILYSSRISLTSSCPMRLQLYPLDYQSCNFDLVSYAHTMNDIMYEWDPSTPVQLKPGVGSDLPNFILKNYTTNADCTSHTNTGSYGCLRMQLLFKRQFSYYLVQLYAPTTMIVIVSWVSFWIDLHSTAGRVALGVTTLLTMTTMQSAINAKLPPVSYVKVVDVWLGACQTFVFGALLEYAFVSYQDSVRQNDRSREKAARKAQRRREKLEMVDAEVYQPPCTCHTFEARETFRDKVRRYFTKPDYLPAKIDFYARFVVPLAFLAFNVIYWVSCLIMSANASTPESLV
Experiment: Agonist activation of current in Xenopus oocytes injected with GluClα and GluClβ RNA (two-microelectrode voltage clamp)
Type: cell-based, C. elegans
Conditions: for type of drug-sensitive current: GluCl α&β oocytes; for voltage dependence of current: I/V
Procedure: Xenopus laevis oocytes were prepared and injected using standard methods previously described and known in the art [Arena, J. P., Liu. K. K., Paress, P. S. & Cully. D. F. Mol. Pharmacol. 40, 368-374 (1991 ); Arena, J. P., Liu, K. K., Paress, P. S., Schaeffer, J. M. & Cully, D. F. Mol. Brain Res. 15, 339-348 (1992)]. Adult female Xenopus laevis were anesthetized with 0.17% tricaine methanesulfonate and the ovaries were surgically removed and placed in a dish consisting of (mM): NaCl 1 82.5, KCl 2. MgCl2 1, CaCl2 1.8, HEPES 5 adjusted to pH 7.5 with NaOH (OR-2). Ovarian lobes were broken open, rinsed several times, and gently shaken in OR-2 containing 0.2% collagenase (Sigma, Type 1A) for 2-5 hours. When approximately 50% of the follicular layers were removed, Stage V and VI oocytes were selected and placed in media consisting of (mM): NaCl 86, KCl 2, MgCl2 1, CaCl2 1.8, HEPES 5, Na pyruvate 2.5, theophylline 0.5, gentamicin 0.1 adjusted to pH 7.5 with NaOH (ND-96) for 24-48 hours before injection. Oocytes were injected with 50-70 nl of poly(A^+) RNA (1 mg/ml) or 50 nl of GluClα (0.1-100 ng) and/or GluClβ (0.1-100 ng). Control oocytes were injected with 50 nl of water. Oocytes were incubated for 2-10 days in ND-96 before recording. Incubations and collagenase digestion were carried out at 18° C.
Recordings were made at room temperature 2-10 days after injection. Unless otherwise indicated recordings were made in standard frog saline consisting of (mM): NaCl 115, KCl 2, MgCl2 1, CaCl2 1.8, HEPES 10 adjusted to pH 7.5 with NaOH. Oocytes were voltage-clamped using a standard two microelectrode amplifier (Dagan 8500 or TEV-200, Minneapolis,Minn.). Pipettes were filled with 3M KCl and had resistances between 0.5-3.0 M.OMEGA.. A plexiglass recording chamber (volume 200 μl) was constantly perfused at a rate of 10 ml/min. The recording chamber was connected to ground with a Ag/AgCl electrode directly, or through a 3M KCl agar bridge when extracellular chloride was varied. For low chloride solutions NaCl was replaced with equimolar concentrations of sodium isethionic acid. For low sodium solutions NaCl was replaced with equimolar KCl or choline Cl. Data were acquired and analyzed using PCLAMP with a TL-1 interface (Axon Instruments, Foster City, Calif.). Membrane current at a holding potential of -80 mV was recorded. The amplitude of drug-sensitive current was determined by subtracting the holding current at -80 mV from the peak current obtained in the presence of drug. Data were filtered at 30 Hz and sampled at 16.6 Hz. Current/voltage relationships (I/V) and reversal potentials (Erev) were determined using a 1-3 sec voltage ramp over the voltage range of -110 to +80 mV. For the ramps, data were filtered at 0.3-3 kHz and sampled at 160 Hz. Current in drug free solution was subtracted from current in the presence of drug to obtain drug-sensitive current/voltage relationships.
Electrophysiological properties were examined in oocytes injected with in vitro RNA from pGluClα and pGluClβ (FIG. 5).
Several ligand-gated ion channel agonists and antagonists were tested on oocytes injected with GluCl α&β (Table 1). […] 255, 449-464 (1976); Arena, J. P., Liu, K. K., Paress, P. S., Schaeffer, J. M. & Cully, D. F. Mol. Brain Res. 15, 339-348 (1992); Lea, T. J. & Usherwood, P. N. R. Comp. Gen. Pharmacol. 4, 351-363 (1973)].

Compound | activation of current / sensitivity of coexpressed GluCl α&β | glutamate concentrations at which desensitization of the glutamate-sensitive current was observed (GluCl α&β injected oocytes) | type of drug-sensitive current | Hill coefficient (glutamate) (GluCl α&β, no IVMPO4) | voltage dependence of current (GluCl α&β) | Hill coefficient (IVMPO4) (GluCl α&β) | time for maximal activation of IVMPO4-sensitive current (GluCl α&β) [s] | EC50 (GluCl α&β, read-out: EC50 for IVMPO4 activation of current) [µM] | % of Glutamate 10 mM (agonist 1 μM, -80 mV, % of response elicited with 10 mM glutamate) [%]
N[C@@H](CCC(=O)O)C(=O)O [glutamate] | direct activation of current | greater than 1 mM | rapidly activating reversible | 1.7 | outwardly rectifying | – | – | – | –
ivermectin-4-O-phosphate [IVMPO4] | direct activation of current | – | irreversible | – | outwardly rectifying | 2.5 | 42 ± 2 | 0.19 | 117 ± 13
